Measured values taken from patent publication US4087461A, “Anti-androgenic steroids” (The Johns Hopkins University, priority 1977, dated 1978).
“Also recorded” adds a separate entry of the source.

Experiments:
[1] = target: T1, Δ^5 -3-ketosteroid isomerase (EC 5.3.3.1) (Comamonas testosteroni, UniProt P00947); assay: irreversible inactivation of crystalline purified bacterial Δ^5-3-ketosteroid isomerase by acetylenic steroids (Kitz and Wilson kinetic analysis); type: biochemical, Pseudomonas testosteroni
Description: The inactivation is progressive with time, and half-lives in the range of 150-1320 sec are observed at concentrations of 20-200 μM of the two inhibitors. The enzymatic activities of control vessels which received only equivalent volumes of 1,4-dioxane remained constant at initial activities.
The initial rates of inactivation of the isomerase by (1) and (2) can be analyzed by the method of Kitz and Wilson^8 since very satisfactory pseudo-first-order behavior was observed. It is assumed that [I] (inhibitor) >> [E] (enzyme), that [E.I] (the reversible enzyme-inhibitorcomplex) is at all times in equilibrium with enzyme and inhibitor, and that ^k cat >> ^k inh. The scheme for the formation of EI' (the irreversible enzyme-inhibitor derivative) may then be represented as follows.
If the enzyme-inhibitor solution is diluted extensively prior to assay, the active enzyme (ε) = [E] + [E.I]. Then -d(ε)/dt = k3 [E.I.], and K1 = ([E][I])/[EI]. Thus [formula] where Et = total amount of enzyme in system.
If one defines [formula] Consequently double reciprocal plots of kapp with respect to [I] should be linear, with slopes and intercepts permitting the determination of K1 and k3 where the latter is the overall rate constant for the irreversible inhibition process.
From plots of 1n ε (residual enzymatic activity) vs. time, kapp has been determined at five inhibitor concentrations for both compounds 1 and 2, i.e. estryne and pregnyne. Strict linearity of the semilogarithmic plots has been observed in all cases, over greater than two half-lives. A plot of 1/kapp vs. 1/[I] was linear and gave k3 and K1 (FIG. 1). For compound 1, K1 = 56 μM and k3 = 1.98 × 10^-3 sec^-1, and for compound 2, K1 = 32 μM and k3 = 4.10 × 10^-3 sec^-1.
Studies were performed using crystalline purified bacterial Δ^5 -3-ketosteroid isomerase (from P. testosteroni), under pseudo first order conditions using the kinetic analysis of R. Kitz and I. B. Wilson [J. Biol. Chem., 237, 3245 (1964)].

[2] = test system: endogenous androgen biosynthesis; assay: study in intact male rats: weights of sex accessory tissue and other organs; type: in vivo, male Sprague-Dawley rats; settings: 7 days; for Adrenal weight (± Sem): control 28 ± 2; for Dorsal Lateral Prostate weight (± Sem): control 252 ± 14; for Seminal Vesicles weight (± Sem): control 470 ± 26; for Ventral Prostate weight (± Sem): control 482 ± 24; for Kidney weight (± Sem): control 1410 ± 38; for Testis weight (± Sem): control 1580 ± 23
Description: Studies with intact male Sprague-Dawley rats (300g body weight) are illustrated for compounds (1) and (2).
Similarly, compound (2), […] rats at a dosage of 20mg per kilo for 7 days produced 20% reduction in weight of the ventral prostate and 28% reduction of the dorsal lateral prostate.
The following data illustrates the inhibiting effect of estryne and pregnyne on Δ^5 -3-ketosteroid isomerase (EC 5.3.3.1) as evidenced by a depression of the wet weight of the sex accessory tissue in the mature male rat treated with the estryne and pregnyne.
A. Male rats were used to assess the effect of estryne on endogenous androgen biosynthesis at varying doses (1-20 mg/kg body weight). […] On the eighth day the animals were sacrificed and the ventral prostate, dorsal lateral prostate, seminal vesicles, testes, kidneys, and adrenals were removed and weighed. Samples of each tissue were preserved in 10% buffered formalin for histological examination.
B. Male rats were treated with 19-norpregnyne by a regimen exactly as described for the estryne.

[3] = target: T1, Δ^5 -3-ketosteroid isomerase (EC 5.3.3.1); assay: irreversible inactivation of crystalline purified bacterial Δ^5-3-ketosteroid isomerase by acetylenic steroids (Kitz and Wilson kinetic analysis); type: biochemical, Pseudomonas testosteroni; settings: 24 hr at 4° vs. 1 mM potassium phosphate buffer, pH 7.0
[4] = target: T2, cytosol androgen receptor (prostate androgen binding protein) (Rattus norvegicus, UniProt P15207); assay: inhibition of nuclear uptake of ^3H-dihydrotestosterone in ventral prostate minces (binding to the prostatic androgen receptor)
T2 construct: freshly minced ventral prostate tissue obtained from rats castrated 24 hours before sacrifice; from tissue; host or cells: ventral prostate minces of castrated rats
T2 sequence (P15207 1-902): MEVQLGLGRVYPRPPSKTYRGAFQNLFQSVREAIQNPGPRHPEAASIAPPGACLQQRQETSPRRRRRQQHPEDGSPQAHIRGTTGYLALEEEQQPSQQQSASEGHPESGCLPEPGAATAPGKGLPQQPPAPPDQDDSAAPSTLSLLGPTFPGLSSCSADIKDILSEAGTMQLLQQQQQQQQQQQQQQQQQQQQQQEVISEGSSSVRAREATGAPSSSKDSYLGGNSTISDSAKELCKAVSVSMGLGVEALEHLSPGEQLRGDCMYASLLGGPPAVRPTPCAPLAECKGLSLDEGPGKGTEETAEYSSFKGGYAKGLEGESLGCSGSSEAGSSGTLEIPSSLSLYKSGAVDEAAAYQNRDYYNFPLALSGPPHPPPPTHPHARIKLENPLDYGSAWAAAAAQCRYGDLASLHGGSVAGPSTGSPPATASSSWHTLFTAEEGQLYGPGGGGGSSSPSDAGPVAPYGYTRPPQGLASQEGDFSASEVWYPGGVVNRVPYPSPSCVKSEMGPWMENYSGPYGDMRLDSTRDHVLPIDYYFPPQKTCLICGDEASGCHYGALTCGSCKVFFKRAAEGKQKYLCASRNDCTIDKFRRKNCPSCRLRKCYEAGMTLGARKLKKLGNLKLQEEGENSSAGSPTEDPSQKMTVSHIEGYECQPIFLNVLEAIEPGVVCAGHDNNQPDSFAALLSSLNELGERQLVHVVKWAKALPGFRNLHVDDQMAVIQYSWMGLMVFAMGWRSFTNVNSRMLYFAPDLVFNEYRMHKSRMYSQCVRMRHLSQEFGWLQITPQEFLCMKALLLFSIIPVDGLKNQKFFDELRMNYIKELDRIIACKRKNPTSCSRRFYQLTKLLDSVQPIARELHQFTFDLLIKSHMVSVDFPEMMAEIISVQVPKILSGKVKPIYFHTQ
Description: The binding to the cytosol androgen receptor was determined by the procedure of Fang (5) with modification. […] The amount of radioactivity in the nuclei is expressed as observed counts per minute per 100 μg DNA.

[5] = 20mg per kilo per day, i.p. in propylene glycol

T1 sequence (P00947 whole entry, stated change not applied): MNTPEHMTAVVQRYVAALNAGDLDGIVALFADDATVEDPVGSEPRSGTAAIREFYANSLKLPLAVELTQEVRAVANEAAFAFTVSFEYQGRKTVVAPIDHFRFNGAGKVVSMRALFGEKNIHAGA

CC(=O)[C@H]1CC[C@H]2[C@@H]3CC#CCC(=O)CCC(=O)[C@H]3CC[C@]12C [Compound 2, 5,10-seco-19-norpregn-5-yne-3,10,20-trione]
irreversible inhibition / inactivation of the enzyme ([1]; in words): rapid irreversible inhibition; also recorded: rapid irreversible and complete inactivation of the enzyme; also recorded: Powerful irreversible inhibition | half-life of enzyme inactivation ([1]; pH 7.0, 20-200 μM of the two inhibitors, in 1,4-dioxane): 2.5 to 22 min | kinact ([1]; pH 7, pseudo first order conditions, five inhibitor concentrations (10-fold range), read-out: k3, overall rate constant for the irreversible inhibition process): 0.0041 s⁻¹ | Ki ([1]; pseudo first order conditions, five inhibitor concentrations (10-fold range), read-out: K1 (KI), inhibitor dissociation constant): 32 µM | reduction in weight of the dorsal lateral prostate [2, 5]: 28% | reduction in weight of the ventral prostate [2, 5]: 20% | dose dependence of the effect on prostatic weight ([2]; 1-20 mg/kg, in words): dose dependent | Adrenal weight (± Sem) ([2]; pregnyne 1 mg/kg daily i.p.): 22 ± 2 mg | Dorsal Lateral Prostate weight (± Sem) ([2]; pregnyne 1 mg/kg daily i.p.): 205 ± 14 mg | Seminal Vesicles weight (± Sem) ([2]; pregnyne 1 mg/kg daily i.p.): 423 ± 21 mg | Ventral Prostate weight (± Sem) ([2]; pregnyne 1 mg/kg daily i.p.): 405 ± 18 mg | Kidney weight (± Sem) ([2]; pregnyne 1 mg/kg daily i.p.): 1360 ± 48 mg | Testis weight (± Sem) ([2]; pregnyne 1 mg/kg daily i.p.): 1530 ± 68 mg | Adrenal weight (± Sem) ([2]; pregnyne 5 mg/kg daily i.p.): 25 ± 2 mg | Dorsal Lateral Prostate weight (± Sem) ([2]; pregnyne 5 mg/kg daily i.p.): 208 ± 11 mg | Seminal Vesicles weight (± Sem) ([2]; pregnyne 5 mg/kg daily i.p.): 384 ± 17 mg | Ventral Prostate weight (± Sem) ([2]; pregnyne 5 mg/kg daily i.p.): 402 ± 27 mg | Kidney weight (± Sem) ([2]; pregnyne 5 mg/kg daily i.p.): 1370 ± 42 mg | Testis weight (± Sem) ([2]; pregnyne 5 mg/kg daily i.p.): 1510 ± 44 mg | Adrenal weight (± Sem) ([2]; pregnyne 10 mg/kg daily i.p.): 26 ± 1 mg | Dorsal Lateral Prostate weight (± Sem) ([2]; pregnyne 10 mg/kg daily i.p.): 182 ± 19 mg | Seminal Vesicles weight (± Sem) ([2]; pregnyne 10 mg/kg daily i.p.): 390 ± 14 mg | Ventral Prostate weight (± Sem) ([2]; pregnyne 10 mg/kg daily i.p.): 386 ± 20 mg | Kidney weight (± Sem) ([2]; pregnyne 10 mg/kg daily i.p.): 1310 ± 60 mg | Testis weight (± Sem) ([2]; pregnyne 10 mg/kg daily i.p.): 1530 ± 53 mg | Adrenal weight (± Sem) ([2]; pregnyne 20 mg/kg daily i.p.): 31 ± 2 mg | Dorsal Lateral Prostate weight (± Sem) ([2]; pregnyne 20 mg/kg daily i.p.): 180 ± 14 mg | Seminal Vesicles weight (± Sem) ([2]; pregnyne 20 mg/kg daily i.p.): 380 ± 9 mg | Ventral Prostate weight (± Sem) ([2]; pregnyne 20 mg/kg daily i.p.): 360 ± 21 mg | Kidney weight (± Sem) ([2]; pregnyne 20 mg/kg daily i.p.): 1360 ± 43 mg | Testis weight (± Sem) ([2]; pregnyne 20 mg/kg daily i.p.): 1480 ± 63 mg | restoration of enzymatic activity by prolonged dialysis [3]: inability to restore enzymatic activity | remaining activity at 2 µM ([4]; rat, 1 h, pH 7.4, steroid 2 × 10^-6 M with ^3H-DHT 2 × 10^-9 M, read-out: nuclear uptake of ^3H-DHT, % Control): 137% | CPM/100 DNA (nuclear uptake of ^3H-DHT) ([4]; steroid 2 × 10^-6 M with ^3H-DHT 2 × 10^-9 M, control 8,471): 11,636 CPM/100 DNA | inhibition of androgen uptake by the nuclei ([4]; ventral prostate minces, in words): no inhibition of androgen uptake by the nuclei
